From US5869699A, “1,2 chemiluminescent dioxetanes of improved performance” (Tropix, Inc., priority 1997, dated 1999)
Where a name gives a salt, the structure may show the parent alone.

What was measured:
Alkaline phosphatase [1] = assay: Chemiluminescence half-life of dephosphorylated dioxetane; assay type: biochemical; settings: for T1/2 (chemiluminescence half-life): 0.004 mM dioxetane, 30° C., 0.1M diethanolamine, 1 mM MgCl2, pH 10, alkaline phosphatase 1.05×10^-9 M, no enhancer; for t1/2 (chemiluminescence half-life): in a buffer solution; for T1/2 (chemiluminescence half-life), with Sapphire II enhancer: Sapphire II enhancer: 0.1M diethanolamine, 1 mM MgCl2, 10% polyvinylbenzyltributyl ammonium chloride at 1 mg/mL
Procedure: Determination of the Chemiluminescence Half-Life of Dephosphorylated Dioxetane.
A 1 mL aliquot of each dioxetane (0.004 mM) was equilibrated to 30° C. in 0.1M diethanolamine, 1 mM MgCl2, pH 10. Alkaline phosphatase (at final concentration of 1.05×10^-9 M) was added to the test tube and the chemiluminescent signal kinetics was measured in a Turner TD-20E luminometer for 10 to 20 minutes. The half-life was calculated from the plot of log RLU versus time. For TFE and TFE-ADP-Star, the chemiluminescent half-life was also determined in the presence of Sapphire II enhancer (in 0.1M diethanolamine, 1 mM MgCl2, 10% polyvinylbenzyltributyl ammonium chloride at 1 mg/mL).

Alkaline phosphatase [2] = assay: Peak light intensity of dephosphorylated dioxetanes; assay type: biochemical; settings: for PEAK INTENSITY: 0.004 mM dioxetane, 30° C., 0.1M diethanolamine, 1 mM MgCl2, pH 10, alkaline phosphatase 1.05×10^-9 M
Procedure: Determination of the Peak Light Intensity of Dephosphorylated Dioxetanes
A 0.5 mL aliquot of dioxetane (0.004 mM) was equilibrated to 30° C. in 0.1M diethanolamine, 1 mM MgCl2, pH 10. Alkaline phosphatase (final concentration of 1.05×10^-9 M) was added to the tube and the chemiluminescent signal was measured in a Turner TD-20E luminometer for 10 to 20 minutes.

[3] = tested on: biotinylated pBR322(35 mer); assay: Detection of biotinylated pBR322 (35 mer) on nylon membrane; settings: for DNA CONC. (detection sensitivity): 5 minute exposure, 0.25 mM dioxetane, nylon membrane, pH 9.5 for CSPD and TFE, pH 9.0 for CDP-Star and TFE-ADP-Star
From the text: Detection of Biotinylated pBR322(35 mer) on Nylon Membrane
Serial dilutions of biotinylated pBR322 (35 mer) were spotted onto strips of Tropilon-Plus nylon membrane. Spots correspond to 210 pg, 70 pg, 23.3 pg, 7.7 pg, 2.6 pg, 0.86 pg, 0.29 pg, 0.10 pg, 32.0 fg, 10.7 fg, 3.6 fg and 1.2 fg of biotinylated pBR322(35 mer). After spotting, the DNA was cross-linked to the membrane by UV fixation, the membranes were blocked with 0.2% I-Block, 5% sodium dodecyl sulfate (SDS) in phosphate buffered saline(PBS) (Blocking Buffer I), incubated with a 1-5000 dilution of Avidx-AP in Blocking Buffer I for 30 minutes, washed twice with 5% SDS in PBS for 5 minutes, rinsed twice with Assay Buffer, incubated for 5 minutes in 0.25 mM dioxetane phosphate in Assay Buffer and exposed to X-ray film for 5 minutes. The membrane strips incubated with CSPD, and TFE were rinsed with 0.1M diethanolamine, 1 mM MgCl2, pH 9.5 and those incubated with CDP-Star, and TFE-ADP-Star were rinsed with the same buffer at pH 9.0. The Assay Buffer for CSPD and TFE was 0.1M diethanolamine, 1 mM MgCl2, pH 9.5 and for CD-Star, and TFE-ADP-Star was the same buffer at pH 9.0.

Alkaline phosphatase [4] = assay: Enzymatic triggering of the prepared dioxetane with alkaline phosphatase to produce light; assay type: biochemical
Procedure: 480 milligrams of chromatographed disodium 2-chloro-5-(2,2,2-trifluoroethoxy tricyclo[3.3.1.1^3,7 ]dec-2-ylidenemethyl)phenyl phosphate was placed in a tube and wet down with anhydrous methanol, 4 mL. Chloroform, 40 mL, was added to obtain a solution. A solution of tetraphenylporphine (TPP), 6 milligrams in 3 mL chloroform, was then added to yield a pink-purple reaction mixture. The solution was cooled in an ice bath while sparging with oxygen through a Pasteur pipette for 5 minutes. The gas flow was continued while the solution was irradiated with a 400 watt sodium vapor lamp which had been filtered with a 3.0 mil thickness of DuPont Kapton film. After 40 minutes, a small sample was blown down and dissolved in water which contained 0.1% NaHCO3. Analytical HPLC, under conditions described above for the starting material, indicated a new product which eluted at 12.1 minutes. The starting material, eluting at 12.5 minutes, was present in just a trace amount. The reaction was stripped of solvents and pumped to yield a dark red foam. This was dissolved in 80 mL water which contained 5 drops of 0.5M NaOH. The solution was filtered to remove insolubles, and was preparatively chromatographed on a one inch PLRP-S column (Polymer Laboratories) using an acetonitrile/water gradient. The product peak was shaved on the front and in the back, collecting only the middle cut. […]

[5] = nylon membrane blotting, TABLE III

| SMILES | T1/2 (chemiluminescence half-life) (Alkaline phosphatase [1]) [min] | PEAK INTENSITY (Alkaline phosphatase [2]) [RLU] | DNA CONC. (detection sensitivity) [3] [PICOGRAMS] | other results |
| --- | --- | --- | --- | --- |
| COC1(c2ccc(Cl)c(OP(=O)(O)O)c2)OOC12C1CC3CC(C1)CC2C3 (stereo not shown) [ADP-Star] | 2.7 | 682 |  |  |
| COC1(c2cccc(OP(=O)(O)O)c2)OOC12C1CC3CC(C1)CC2C3 (stereo not shown) [AMPPD, 3-(2'-spiroadamantane)-4-methoxy-4-(3"-phosphoryloxy)-phenyl-1,2-dioxetanedisodium salt] |  |  |  | t1/2 (chemiluminescence half-life) (Alkaline phosphatase [1]): 2.1 min |
| COC1(c2ccc(Cl)c(OP(=O)(O)O)c2)OOC12C1CC3CC2CC(Cl)(C3)C1 (stereo not shown) [CDP-Star] | 1.2 | 863 | 0.86 |  |
| COC1(c2cccc(OP(=O)(O)O)c2)OOC12C1CC3CC2CC(Cl)(C3)C1 (stereo not shown) [CSPD] | 0.6 | 200 | 23.3 | half-life compared with TFE (Alkaline phosphatase [1]; by itself in a buffer): shorter than TFE |
| O=P(O)(O)Oc1cc(C2(OCC(F)(F)F)OOC23C2CC4CC(C2)CC3C4)ccc1Cl (stereo not shown) [TFE-ADP-Star, Disodium 2-chloro-5-(4-(2,2,2-trifluoroethoxy)spiro{1,2-dioxetane-3,2'-tricyclo[3.3.1.1^3,7]decan}-4-yl-phenyl phosphate] | 2.0 | 390 | 0.0107 | T1/2 (chemiluminescence half-life), with Sapphire II enhancer (Alkaline phosphatase [1]): 5.0 min; chemiluminescent signal intensity / relative emission efficiency (Alkaline phosphatase [2]; comment on TABLE II): generates a higher intensity signal; amount of DNA detected relative to TFE [3, 5]: close to one thousand times less DNA than TFE; sensitivity compared with CDP-Star [3, 5]: more sensitive than CDP-Star; light production on enzymatic triggering with alkaline phosphatase (Alkaline phosphatase [4]): produce light |
| O=P([O-])([O-])Oc1cccc(C2(OCC(F)(F)F)OOC23C2CC4CC3CC(Cl)(C4)C2)c1.[Na+].[Na+] (stereo not shown) [TFE-CDP-Star, Disodium 3-(4-(2,2,2-trifluoroethoxy)spiro{1,2-dioxetane-3,2'-(5'-chloro)tricyclo [3.3.1,1^3,7]decan}-4-yl)phenyl phosphate] |  |  |  | duration of burst of light on addition of excess alkaline phosphatase (Alkaline phosphatase [4]; HPLC peak of basified reaction sample, pH 10 aqueous diethanolamine buffer, excess alkaline phosphatase): 3 min |
| O=P(O)(O)Oc1cccc(C2(OCC(F)(F)F)OOC23C2CC4CC(C2)CC3C4)c1 (stereo not shown) [TFE] | 0.9 | 282 | 7.7 | T1/2 (chemiluminescence half-life), with Sapphire II enhancer (Alkaline phosphatase [1]): 15.5 min; t1/2 (chemiluminescence half-life) (Alkaline phosphatase [1]): 0.9 min; t1/2 in the presence of enhancers (Alkaline phosphatase [1]; in the presence of enhancers): 15 min |
